# Test system: 922993-354-T-J3-PDC complex spheroids, viability
# Experiment: Anticancer human tumor 922993-354-T-J3-PDC patient-derived endometrial carcinoma cell line growth inhibition [GQUAD]
# Details: for IC50: curve of first compound; for viability, T/C: stronger effect = lower value
# In short: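 Multi-cell-type spheroids of tumor cells with HUVEC and mesenchymal stem cells, treated with drug combinations. Concentrations descend in half-log steps from near clinical Cmax, or from 10 microM where Cmax is unknown; viability read-out.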
# [1] = second compound 0.0316 µM, first compound 0.0316 µM
# [2] = second compound 0.0316 µM, first compound 0.316 µM
# [3] = second compound 0.1 µM, first compound 0.0316 µM
# [4] = second compound 0.1 µM, first compound 0.316 µM
# [5] = second compound 0.316 µM, first compound 0.0316 µM
# [6] = second compound 0.316 µM, first compound 0.316 µM
# [7] = second compound 1 µM, first compound 0.0316 µM
# [8] = second compound 1 µM, first compound 0.316 µM
# [9] = second compound 3.16 µM, first compound 0.0316 µM
# [10] = second compound 3.16 µM, first compound 0.316 µM
# [11] = second compound 10 µM, first compound 0.0316 µM
# [12] = second compound 10 µM, first compound 0.316 µM
# [13] = second compound 0.0316 µM, first compound 0.1 µM
# [14] = second compound 0.0316 µM, first compound 1 µM
# [15] = second compound 0.0316 µM, first compound 3.16 µM
# [16] = second compound 0.0316 µM, first compound 10 µM
# [17] = second compound 0.1 µM, first compound 0.1 µM
# [18] = second compound 0.1 µM, first compound 1 µM
# [19] = second compound 0.1 µM, first compound 3.16 µM
# [20] = second compound 0.1 µM, first compound 10 µM
# [21] = second compound 0.316 µM, first compound 0.1 µM
# [22] = second compound 0.316 µM, first compound 1 µM
# [23] = second compound 0.316 µM, first compound 3.16 µM
# [24] = second compound 0.316 µM, first compound 10 µM
# [25] = second compound 1 µM, first compound 0.1 µM
# [26] = second compound 1 µM, first compound 1 µM
# [27] = second compound 1 µM, first compound 3.16 µM
# [28] = second compound 1 µM, first compound 10 µM
# [29] = second compound 3.16 µM, first compound 0.1 µM
# [30] = second compound 3.16 µM, first compound 1 µM
# [31] = second compound 3.16 µM, first compound 3.16 µM
# [32] = second compound 3.16 µM, first compound 10 µM
# [33] = second compound 10 µM, first compound 0.1 µM
# [34] = second compound 10 µM, first compound 1 µM
# [35] = second compound 10 µM, first compound 3.16 µM
# [36] = second compound 10 µM, first compound 10 µM
# 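Note: spheroids exposed to compounds for seven days.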
# 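Throughout, for viability, T/C: 100% = DMSO vehicle control viability.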
smiles,measurement,setting,value
Cn1ncnc1[C@H]1c2n[nH]c(=O)c3cc(F)cc(c23)N[C@@H]1c1ccc(F)cc1 + Cc1[nH]c2ccc(F)cc2c1-c1nc2c3cccnc3c3ncccc3c2[nH]1,IC50,second compound 0.0316 µM,> 316 nM
same,IC50,second compound 0.1 µM,> 316 nM
same,IC50,second compound 0.316 µM,> 316 nM
same,IC50,second compound 1 µM,> 316 nM
same,IC50,second compound 3.16 µM,> 316 nM
same,IC50,second compound 10 µM,> 316 nM
same,"viability, T/C","second compound 0.0316 µM, first compound 0.000999 µM",102%
same,"viability, T/C","second compound 0.0316 µM, first compound 0.00316 µM",100%
same,"viability, T/C","second compound 0.0316 µM, first compound 0.00999 µM",83.8%
same,"viability, T/C",[1],88%
same,"viability, T/C","second compound 0.0316 µM, first compound 0.0999 µM",85%
same,"viability, T/C",[2],61.5%
same,"viability, T/C","second compound 0.1 µM, first compound 0.000999 µM",92.4%
same,"viability, T/C","second compound 0.1 µM, first compound 0.00316 µM",85.4%
same,"viability, T/C","second compound 0.1 µM, first compound 0.00999 µM",80.8%
same,"viability, T/C",[3],97.5%
same,"viability, T/C","second compound 0.1 µM, first compound 0.0999 µM",80.1%
same,"viability, T/C",[4],54.1%
same,"viability, T/C","second compound 0.316 µM, first compound 0.000999 µM",100%
same,"viability, T/C","second compound 0.316 µM, first compound 0.00316 µM",98.6%
same,"viability, T/C","second compound 0.316 µM, first compound 0.00999 µM",108%
same,"viability, T/C",[5],111%
same,"viability, T/C","second compound 0.316 µM, first compound 0.0999 µM",122%
same,"viability, T/C",[6],64.9%
same,"viability, T/C","second compound 1 µM, first compound 0.000999 µM",110%
same,"viability, T/C","second compound 1 µM, first compound 0.00316 µM",82.8%
same,"viability, T/C","second compound 1 µM, first compound 0.00999 µM",100%
same,"viability, T/C",[7],97.1%
same,"viability, T/C","second compound 1 µM, first compound 0.0999 µM",93.3%
same,"viability, T/C",[8],69.6%
same,"viability, T/C","second compound 3.16 µM, first compound 0.000999 µM",118%
same,"viability, T/C","second compound 3.16 µM, first compound 0.00316 µM",92.6%
same,"viability, T/C","second compound 3.16 µM, first compound 0.00999 µM",106%
same,"viability, T/C",[9],84.2%
same,"viability, T/C","second compound 3.16 µM, first compound 0.0999 µM",94.9%
same,"viability, T/C",[10],70.6%
same,"viability, T/C","second compound 10 µM, first compound 0.000999 µM",111%
same,"viability, T/C","second compound 10 µM, first compound 0.00316 µM",93%
same,"viability, T/C","second compound 10 µM, first compound 0.00999 µM",119%
same,"viability, T/C",[11],112%
same,"viability, T/C","second compound 10 µM, first compound 0.0999 µM",75%
same,"viability, T/C",[12],81.9%
COc1cccc2c1C(=O)c1c(O)c3c(c(O)c1C2=O)CC(O)(C(=O)CO)CC3OC1CC(N)C(O)C(C)O1 (stereo unspecified) + Cc1[nH]c2ccc(F)cc2c1-c1nc2c3cccnc3c3ncccc3c2[nH]1,IC50,second compound 0.0316 µM,9800 nM
same,IC50,second compound 0.1 µM,> 10000 nM
same,IC50,second compound 0.316 µM,> 10000 nM
same,IC50,second compound 1 µM,> 10000 nM
same,IC50,second compound 3.16 µM,> 10000 nM
same,IC50,second compound 10 µM,9330 nM
same,"viability, T/C",[1],120%
same,"viability, T/C",[13],114%
same,"viability, T/C",[2],99.5%
same,"viability, T/C",[14],83.7%
same,"viability, T/C",[15],76.3%
same,"viability, T/C",[16],46.1%
same,"viability, T/C",[3],118%
same,"viability, T/C",[17],96%
same,"viability, T/C",[4],86.7%
same,"viability, T/C",[18],66.3%
same,"viability, T/C",[19],105%
same,"viability, T/C",[20],56.1%
same,"viability, T/C",[5],96.5%
same,"viability, T/C",[21],105%
same,"viability, T/C",[6],92.6%
same,"viability, T/C",[22],94.1%
same,"viability, T/C",[23],73.2%
same,"viability, T/C",[24],56.1%
same,"viability, T/C",[7],122%
same,"viability, T/C",[25],91.4%
same,"viability, T/C",[8],72.3%
same,"viability, T/C",[26],80.1%
same,"viability, T/C",[27],81.3%
same,"viability, T/C",[28],53.8%
same,"viability, T/C",[9],120%
same,"viability, T/C",[29],73.8%
same,"viability, T/C",[10],71.4%
same,"viability, T/C",[30],88.7%
same,"viability, T/C",[31],74.6%
same,"viability, T/C",[32],46.9%
same,"viability, T/C",[11],97.2%
same,"viability, T/C",[33],81.8%
same,"viability, T/C",[12],89%
same,"viability, T/C",[34],98.4%
same,"viability, T/C",[35],103%
same,"viability, T/C",[36],47.1%
O=C(NO)c1cnc(N2CCN(S(=O)(=O)c3ccc4ccccc4c3)CC2)nc1 + Cc1cnc(CNC(=O)c2c(=O)c3ccc(N4CCCN(C)CC4)nc3n3c2sc2ccccc23)cn1,IC50,second compound 0.0316 µM,482 nM
same,IC50,second compound 0.1 µM,84.6 nM
same,IC50,second compound 0.316 µM,< 31.6 nM
same,IC50,second compound 1 µM,< 31.6 nM
same,IC50,second compound 3.16 µM,< 31.6 nM
same,IC50,second compound 10 µM,< 31.6 nM
same,"viability, T/C",[1],80.3%
same,"viability, T/C",[13],85%
same,"viability, T/C",[2],59.2%
same,"viability, T/C",[14],30.6%
same,"viability, T/C",[15],5.35%
same,"viability, T/C",[16],0.97%
same,"viability, T/C",[3],63.8%
same,"viability, T/C",[17],47.5%
same,"viability, T/C",[4],32.4%
same,"viability, T/C",[18],20.5%
same,"viability, T/C",[19],8.63%
same,"viability, T/C",[20],1.81%
same,"viability, T/C",[5],46.4%
same,"viability, T/C",[21],32%
same,"viability, T/C",[6],36.2%
same,"viability, T/C",[22],21.2%
same,"viability, T/C",[23],11.2%
same,"viability, T/C",[24],2.24%
same,"viability, T/C",[7],44.3%
same,"viability, T/C",[25],45.7%
same,"viability, T/C",[8],28.4%
same,"viability, T/C",[26],12.4%
same,"viability, T/C",[27],5.24%
same,"viability, T/C",[28],0.22%
same,"viability, T/C",[9],42%
same,"viability, T/C",[29],36.8%
same,"viability, T/C",[10],24.9%
same,"viability, T/C",[30],4.62%
same,"viability, T/C",[31],0.18%
same,"viability, T/C",[32],0.17%
same,"viability, T/C",[11],38.7%
same,"viability, T/C",[33],25%
same,"viability, T/C",[12],14.2%
same,"viability, T/C",[34],0.2%
same,"viability, T/C",[35],0.21%
same,"viability, T/C",[36],0.22%

# — PubChem BioAssay AID2060489 (Molecular Pharmacology Branch, DTP, NCI, 2025)
